{
  "source": "patent US12629364B2",
  "about": "“Methods of treating cancers overexpressing CARM1 with EZH2 inhibitors and platinum-based antineoplastic drugs” (The Wistar Institute of Anatomy and Biology, priority 2016, dated 2026)",
  "key": {"[1]": {"tested_on": "parental and CARM1 knockout A1847 cells, OVCAR10 cells", "assay": "Apoptosis markers (Annexin V, cleaved caspase 3, cleaved PARP)", "assay_type": "cell-based, Human", "conditions": "10 μM; 7 days; CARM1-dependent manner", "protocol": "FIG. 37 illustrates control parental and CARM1 knockout A1847 cells were treated with 10 μM GSK126 or vehicle for 7 days. Percentage of Annexin V positive apoptotic cells was quantified. *p<0.001 and #p>0.05.\nFIG. 38 illustrates levels of cleaved caspase 3 and cleaved PARP in control parental and CARM1 knockout A1847 cells treated with 10 μM GSK126 for 7 days. Expression of β-actin was used as a loading control.\nFIG. 39A illustrates the expression of apoptosis markers cleaved in CARM1 high OVCAR10 cells as a result of treatment with GSK126. CARM1 high OVCAR10 cells were treated with 10 μM GSK 126 or vehicle control for 7 days. The expression of apoptosis markers cleaved caspase 3 and cleaved PARP were determined by immunoblot. Expression of β-actin was used as a loading control.\nPhosphatidylserine externalization was detected using an Annexin V staining kit (Millipore) following the manufacturer's instructions. Annexin V-positive cells were detected using the Guava System and analyzed with the Guava Nexin software Module (Millipore)."}, "CARM1-expressing tumors": {"tested_on": "CARM1-expressing tumors", "assay": "IHC and qRT-PCR of dissected CARM1-expressing tumors", "assay_type": "in vivo, NSG mice", "conditions": "IHC", "protocol": "FIG. 79 illustrates immunohistochemical analysis for serial sections of tumors dissected from the indicated treatment groups where the tumor sections were stained for H3K27Me3, EZH2, cleaved caspase 3, and Ki67. Scale bar=50 μm.\nFIG. 80 illustrates histological scoring (H-score) of the indicated proteins that was calculated for 3 separate fields from 5 tumors from 5 individual mice from each of the indicated groups.\nFIG. 81 illustrates the expression of the indicated EZH2/BAF155 target genes that was determined by qRT-PCR in the tumors dissected from the indicated treatment groups."}, "[2]": {"tested_on": "promoter regions of the human DAB2, DLC1, NOXA and TIMP3 genes", "assay": "ChIP-qPCR at target gene promoters", "assay_type": "cell-based", "conditions": "A1847 cells", "excerpt": "FIGS. 58 to 61 illustrate the results of a ChIP analysis using anti-EZH2 (FIG. 58), anti-H3K27Me3 (FIG. 59), anti-BAF155 (FIG. 60), or anti-RNA Pol II (FIG. 61) antibodies. An isotype matched IgG was used as a negative control. ChIP products were subjected to qPCR analysis using primers specific for the promoter regions of the human DAB2, DLC1, and NOXA genes. Data is representative of three independent experiments. *p<0.001 compared with IgG controls and #p<0.001 compared with parental controls.\nFIGS. 62 to 65 illustrate the results of a ChIP analysis in parental control and CARM1 knockout A1847 cells treated with 10 μM GSK 126 or vehicle controls. The cells were subjected to ChIP analysis using anti-EZH2 (FIG. 62), anti-H3K27Me3 (FIG. 63), anti-BAF155 (FIG. 64), or anti-RNA Pol II (FIG. 65) antibodies. An isotype-matched IgG was used as a negative control. ChIP products were subjected to qPCR analysis using primers specific for the promoter regions of the human TIMP3 genes. Mean of three independent experiments with SEM. *p<0.001 compared with controls.\nChIP was performed as described in Tu et al. Developmental Cell (2011) 21:1077-91. The following antibodies were used to perform ChIP: anti-H3K27Me3 (Cell Signaling, Cat. No: 9733), anti-BAF155 (Santa Cruz, Cat. No: sc-9746), anti-RNA polymerase II (Santa Cruz, Cat. No: sc-899) or anti-EZH2 (Cell Signaling, Cat. No: 5246). An isotype matched IgG was used as a negative control. ChIP DNA was analyzed by quantitative PCR against the promoter of the indicated genes using the following primers: DAB2 Forward: 5′-[…]-3′ (SEQ ID NO: 10) and DAB2 Reverse: 5′-[…]-3′ (SEQ ID NO: 11); DLC1 Forward: 5′-[…]-3′ (SEQ ID NO: 12) and DLC1 Reverse: 5′-[…]-3′ (SEQ ID NO: 13); NOXA Forward: 5′-[…]-3′ (SEQ ID NO: 14) and NOXA Reverse: 5′-[…]-3′ (SEQ ID NO: 15); TIMP3 Forward: 5′-[…]-3′ (SEQ ID NO: 16) and TIMP3 Reverse: 5′-[…]-3′ (SEQ ID NO: 17)."}, "[3]": {"tested_on": "CARM1-expressing A1847 tumors", "assay": "Subcutaneous xenograft, CARM1-expressing A1847 cells", "assay_type": "in vivo, NSG mice", "conditions": "50 mg/kg daily i.p., three weeks", "protocol": "FIGS. 73 to 75 illustrate that EZH2 inhibition suppressed the growth of CARM1-expressing ovarian tumors in vivo. FIG. 73 illustrates images of tumors dissected from control or GSK126 treated mice. CARM1-high A1847 cells were injected subcutaneously into immunocompromised NSG mice (n=5/group). Tumors were allowed to establish for one week before the mice were randomized into two different treatment groups. Mice were treated with vehicle control or GSK126 (50 mg/kg daily) for an additional three weeks. At the end of treatment, the mice were euthanized. Bar=1 cm. FIG. 74 illustrates a difference in tumor size measured as a surrogate for tumor burden from the control and GSK 126 treated mice at the indicated time point. FIG. 75 illustrates a difference in tumor weight measured as a surrogate for tumor burden from control and GSK 126-treated mice. The mice were injected with CARM1 knockout A1847 cells.\nThe protocols were approved by the Institutional Animal Care and Use Committee (IACUC). 5×10^6 control A1847 or A1847 CARM1 knockout cells were unilaterally injected subcutaneously into 6-8-week old female immunocompromised NSG mice (n=5 per group). […] Tumor size was measured every 3 days for 3 weeks. At end of the experiments, tumors were surgically dissected and tumor burden was calculated based on tumor weight."}, "HOSE or FTE cells": {"tested_on": "HOSE or FTE cells", "assay": "Colony formation assay, normal HOSE and FTE cells", "assay_type": "cell-based, Human", "conditions": "10 μM", "protocol": "FIG. 33 illustrates relative growth of the indicated HOSE, FTE, and EOC cancer cell lines with high or low CARM1 expression treated with 10 μM GSK126 or vehicle in a colony formation assay as determined by NIH Image J quantification.\n500 to 5,000 cell were plated into a 24 well tissue culture plate and treated with the indicated compounds. Medium was changed every three days with appropriate drug doses for 12 days or until control wells became confluent. Colonies were washed twice with PBS and fixed with 10% methanol and 10% acetic acid in distilled water. Fixed colonies were stained with 0.005% crystal violet. Integrated density was measured using NIH ImageJ software."}},
  "data": [
    {"smiles": "CC[C@H](C)n1cc(C)c2c(C(=O)NCc3c(C)cc(C)[nH]c3=O)cc(-c3ccc(N4CCNCC4)nc3)cc21", "note": "[GSK126, (S)-1-(sec-butyl)-N-((4,6-dimethyl-2-oxo-1,2-dihydropyridin-3-yl)methyl)-3-methyl-6-(6-(piperazin-1-yl)pyridin-3-yl)-1H-indole-4-carboxamide]", "values": [
      {"measurement": "markers of apoptosis", "setting": "[1]", "result": "markers of apoptosis were induced"},
      {"measurement": "H3K27Me3 staining", "setting": "CARM1-expressing tumors", "result": "H3K27Me3 staining was decreased"},
      {"measurement": "association of BAF155 and Pol II with the TIMP3 promoter", "setting": "[2]; 10 μM", "result": "CARM1 KO but not EZH2 inhibitor GSK 126 treatment decreased the association"},
      {"measurement": "EZH2's association with its target genes", "setting": "[2]; DAB2, DLC1, NOXA loci", "result": "without affecting EZH2's association with its target genes"},
      {"measurement": "H3K27Me3 occupancy of target genes", "setting": "[2]; DAB2, DLC1, NOXA loci", "result": "decreased H3K27Me3 occupancy"},
      {"measurement": "tumor growth", "setting": "[3]", "result": "significantly inhibited the growth of CARM1-expressing tumors"},
      {"measurement": "growth of normal cells", "setting": "HOSE or FTE cells", "result": "did not affect the growth of either HOSE or FTE cells"}
    ]}
  ]
}
